Measured values as given in article PMC8909834, “An Orally Bioavailable and Highly Efficacious Inhibitor of CDK9/FLT3 for the Treatment of Acute Myeloid Leukemia” (Cancers, 2022).

Tests used:
Assay in all cases: Kinase Hotspot radiolabel assay
Format in all cases: biochemical
Settings in all cases: read-out: % Residual Activity
[1] = target: T1, PYK2 (Homo sapiens, UniProt Q14289)
T1 construct: purchased Reaction Biology Corporation (Kinase HotSpot)
Protocol: (§1) Kinase assay. The ADP Glo^TM kinase assay (Promega, Madison, WI, USA) was used to assess the inhibition by CDDD11-8 of CDKs 1, 2, 4, 6, 7, and 9, as well as the mutant isoforms of FLT3. The assays were performed in accord with the manufacturer’s protocol (Promega) as described previously. Briefly, serial three-fold dilutions of CDDD11-8 were prepared in 100% DMSO from a 2 mM stock solution, followed by 1:40 dilution into Milli-Q water. Subsequently, 1 µL of each sample was incubated with 4 µL of kinase mixture containing a particular CDK enzyme and its substrate, standard kinase buffer [3 mM MgCl2, 50 mM HEPES-NaOH pH 7.5, 3 mM MnCl2, 3 µM Na-orthovanadate, 1 mM dithiothreitol (DTT)], kinase dilution buffer (containing 0.25 mg/mL PEG20,000, 50 mM HEPES-NaOH pH 7.5, 1 mM DTT), and ATP at 37 °C for 30 to 40 min. The final reaction mixture contained 0.5% DMSO in all samples, and the applied kinase concentrations were 1, 1, 10, 40, 20, and 50 nM for CDK1, 2, 4, 6, 7, and 9, respectively. The reaction was stopped by adding ADP-Glo reagent and the mixture was incubated further in the dark at room temperature for 40 min. As a final step, kinase detection reagent was added to each mixture and incubated at room temperature for 30 to 60 min. Luminescence was read using an EnVision® multilabel plate reader (PerkinElmer, Beaconsfield, UK), and half-maximum inhibitory concentrations (IC50) were calculated using a non-linear regression model with a variable slope, plotting log (inhibitor concentration) vs. response using the following formula: Ar%=Bottom+Top−Bottom/1+Inhibitor Concentration/IC50^HillSlope where the relative activity Ar (%) is the signal relative to the controls, IC50 is the half maximum concentration, Hillslope is the steepness of the dose-response curve, Top and Bottom are plateaus reflecting the maximum and minimum in responses on the Y-axis (GraphPad Prism version 7, San Diego, CA, USA). Ki values were calculated from the IC50 using the Cheng−Prusoff equation [32]. Extensive specificity assessment was carried out by Reaction Biology Corporation (Malvern, PA, USA) with 369 kinases using 1 µM CDDD11-8 concentration in a Kinase Hotspot radiolabel assay (for experimental details, please see (Reaction Biology https://www.reactionbiology.com/). Subsequently, Ki values were determined for kinases with greater than 90% inhibition.

[2] = target: T2, CDK14/cyclin Y (PFTK1) (Homo sapiens, UniProt O94921)
T2 construct: purchased Reaction Biology Corporation (Kinase HotSpot)
Protocol: as §1

[3] = target: T3, CDK1/cyclin A (Homo sapiens, UniProt P06493)
T3 construct: purchased Reaction Biology Corporation (Kinase HotSpot)
Protocol: as §1

[4] = target: T4, PDGFRb (Homo sapiens, UniProt P09619)
T4 construct: purchased Reaction Biology Corporation (Kinase HotSpot)
Protocol: as §1

[5] = target: T5, ALK4/ACVR1B (Homo sapiens, UniProt P36896)
T5 construct: purchased Reaction Biology Corporation (Kinase HotSpot)
Protocol: as §1

[6] = target: T6, EPHA1 (Homo sapiens, UniProt P21709)
T6 construct: purchased Reaction Biology Corporation (Kinase HotSpot)
Protocol: as §1

[7] = target: T7, MKK7 (Homo sapiens, UniProt O14733)
T7 construct: purchased Reaction Biology Corporation (Kinase HotSpot)
T7 sequence (O14733 whole entry): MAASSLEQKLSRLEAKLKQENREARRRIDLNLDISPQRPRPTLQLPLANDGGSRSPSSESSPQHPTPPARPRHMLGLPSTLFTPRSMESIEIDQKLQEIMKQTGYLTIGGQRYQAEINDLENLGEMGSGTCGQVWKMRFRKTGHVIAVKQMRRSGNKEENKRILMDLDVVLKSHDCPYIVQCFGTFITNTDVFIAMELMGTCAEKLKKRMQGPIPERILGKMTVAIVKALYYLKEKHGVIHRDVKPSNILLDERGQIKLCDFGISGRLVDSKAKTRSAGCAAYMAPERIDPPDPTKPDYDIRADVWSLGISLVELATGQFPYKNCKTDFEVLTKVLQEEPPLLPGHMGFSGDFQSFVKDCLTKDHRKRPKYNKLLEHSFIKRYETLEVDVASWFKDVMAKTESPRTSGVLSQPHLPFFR
Protocol: as §1

[8] = target: T8, PKCzeta (Homo sapiens, UniProt Q05513)
T8 construct: purchased Reaction Biology Corporation (Kinase HotSpot)
Protocol: as §1

[9] = target: T9, EPHA3 (Homo sapiens, UniProt P29320)
T9 construct: purchased Reaction Biology Corporation (Kinase HotSpot)
Protocol: as §1

[10] = target: T10, DDR2 (Homo sapiens, UniProt Q16832)
T10 construct: purchased Reaction Biology Corporation (Kinase HotSpot)
Protocol: as §1

[11] = target: T11, CDK9/cyclin T1 (Homo sapiens, UniProt P50750)
T11 construct: purchased Reaction Biology Corporation (Kinase HotSpot)
T11 sequence (P50750 whole entry): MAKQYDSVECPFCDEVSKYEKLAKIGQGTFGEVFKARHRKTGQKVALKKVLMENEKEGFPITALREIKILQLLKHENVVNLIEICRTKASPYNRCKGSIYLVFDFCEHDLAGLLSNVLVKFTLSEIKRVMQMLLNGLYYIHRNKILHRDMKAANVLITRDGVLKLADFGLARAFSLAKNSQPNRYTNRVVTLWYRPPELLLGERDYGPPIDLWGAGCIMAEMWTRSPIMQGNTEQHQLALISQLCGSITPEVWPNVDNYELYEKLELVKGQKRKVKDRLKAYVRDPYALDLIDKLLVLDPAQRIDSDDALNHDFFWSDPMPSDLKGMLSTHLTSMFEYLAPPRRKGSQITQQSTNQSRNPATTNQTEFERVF
T11 sequence (O60563 whole entry partner): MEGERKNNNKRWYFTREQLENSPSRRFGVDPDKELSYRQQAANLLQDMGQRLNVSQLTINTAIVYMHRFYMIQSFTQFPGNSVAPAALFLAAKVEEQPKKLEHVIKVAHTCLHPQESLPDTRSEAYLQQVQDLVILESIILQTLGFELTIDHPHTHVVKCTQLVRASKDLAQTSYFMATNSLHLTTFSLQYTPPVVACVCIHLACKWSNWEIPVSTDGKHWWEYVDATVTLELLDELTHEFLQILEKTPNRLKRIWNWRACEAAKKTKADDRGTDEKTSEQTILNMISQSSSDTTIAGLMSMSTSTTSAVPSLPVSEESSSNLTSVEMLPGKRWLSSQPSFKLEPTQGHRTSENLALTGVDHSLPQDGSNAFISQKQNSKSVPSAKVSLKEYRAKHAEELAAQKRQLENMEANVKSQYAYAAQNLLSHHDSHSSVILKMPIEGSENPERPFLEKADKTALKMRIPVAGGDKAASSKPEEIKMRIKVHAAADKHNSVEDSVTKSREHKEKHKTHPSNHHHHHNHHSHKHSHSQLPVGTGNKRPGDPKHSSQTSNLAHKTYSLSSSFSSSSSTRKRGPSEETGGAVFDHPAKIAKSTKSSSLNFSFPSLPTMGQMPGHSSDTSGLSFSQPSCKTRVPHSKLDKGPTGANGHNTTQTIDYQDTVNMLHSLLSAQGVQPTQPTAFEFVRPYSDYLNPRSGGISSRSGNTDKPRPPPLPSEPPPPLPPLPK
Protocol: as §1

[12] = target: T12, DMPK (Homo sapiens, UniProt Q09013)
T12 construct: purchased Reaction Biology Corporation (Kinase HotSpot)
Protocol: as §1

[13] = target: T13, CK1epsilon (Homo sapiens, UniProt P49674)
T13 construct: purchased Reaction Biology Corporation (Kinase HotSpot)
Protocol: as §1

[14] = target: T14, ULK1 (Homo sapiens, UniProt O75385)
T14 construct: purchased Reaction Biology Corporation (Kinase HotSpot)
Protocol: as §1

[15] = target: T15, PKCiota (Homo sapiens, UniProt P41743)
T15 construct: purchased Reaction Biology Corporation (Kinase HotSpot)
Protocol: as §1

[16] = target: T16, PKG1b (Homo sapiens, UniProt Q13976)
T16 construct: purchased Reaction Biology Corporation (Kinase HotSpot)
T16 sequence (Q13976 1-686 isoform Q13976-2): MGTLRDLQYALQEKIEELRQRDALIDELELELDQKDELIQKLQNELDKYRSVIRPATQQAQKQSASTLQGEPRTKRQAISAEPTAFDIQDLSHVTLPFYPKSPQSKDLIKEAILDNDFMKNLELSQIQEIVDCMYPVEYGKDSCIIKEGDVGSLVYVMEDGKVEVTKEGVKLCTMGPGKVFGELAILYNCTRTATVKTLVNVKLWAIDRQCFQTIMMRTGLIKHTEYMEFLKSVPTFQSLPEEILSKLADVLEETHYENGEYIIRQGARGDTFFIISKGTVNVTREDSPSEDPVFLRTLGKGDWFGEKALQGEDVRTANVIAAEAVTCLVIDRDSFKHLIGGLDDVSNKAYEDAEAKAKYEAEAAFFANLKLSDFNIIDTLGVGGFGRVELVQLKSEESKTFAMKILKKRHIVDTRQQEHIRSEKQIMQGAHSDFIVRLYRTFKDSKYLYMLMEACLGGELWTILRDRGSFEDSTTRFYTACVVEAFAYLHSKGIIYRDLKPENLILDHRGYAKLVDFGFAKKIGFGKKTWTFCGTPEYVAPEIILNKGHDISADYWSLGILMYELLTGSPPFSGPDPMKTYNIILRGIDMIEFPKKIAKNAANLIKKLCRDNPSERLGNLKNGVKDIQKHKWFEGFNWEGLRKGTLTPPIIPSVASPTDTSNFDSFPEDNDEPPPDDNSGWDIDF
Protocol: as §1

[17] = target: T17, COT1/MAP3K8 (Homo sapiens, UniProt P41279)
T17 construct: purchased Reaction Biology Corporation (Kinase HotSpot)
Protocol: as §1

[18] = target: T18, MNK1 (Homo sapiens, UniProt Q9BUB5)
T18 construct: purchased Reaction Biology Corporation (Kinase HotSpot)
Protocol: as §1

[19] = target: T19, BTK (Homo sapiens, UniProt Q06187)
T19 construct: purchased Reaction Biology Corporation (Kinase HotSpot)
Protocol: as §1

[20] = target: T20, SGK2 (Homo sapiens, UniProt Q9HBY8)
T20 construct: purchased Reaction Biology Corporation (Kinase HotSpot)
T20 sequence (Q9HBY8 whole entry): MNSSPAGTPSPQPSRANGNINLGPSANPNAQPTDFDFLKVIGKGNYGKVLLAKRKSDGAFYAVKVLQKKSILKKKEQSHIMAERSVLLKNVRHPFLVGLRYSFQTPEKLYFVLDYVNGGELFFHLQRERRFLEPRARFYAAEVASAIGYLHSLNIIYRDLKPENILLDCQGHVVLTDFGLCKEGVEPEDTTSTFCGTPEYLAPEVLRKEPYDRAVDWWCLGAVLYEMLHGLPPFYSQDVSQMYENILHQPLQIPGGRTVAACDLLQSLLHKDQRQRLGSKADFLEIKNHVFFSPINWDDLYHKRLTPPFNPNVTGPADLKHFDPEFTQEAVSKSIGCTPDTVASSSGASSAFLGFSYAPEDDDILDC
Protocol: as §1

[21] = target: T21, LYN B (Homo sapiens, UniProt P07948)
T21 construct: purchased Reaction Biology Corporation (Kinase HotSpot)
Protocol: as §1

[22] = target: T22, DLK/MAP3K12 (Homo sapiens, UniProt Q12852)
T22 construct: purchased Reaction Biology Corporation (Kinase HotSpot)
Protocol: as §1

[23] = target: T23, ROS/ROS1 (Homo sapiens, UniProt P08922)
T23 construct: purchased Reaction Biology Corporation (Kinase HotSpot)
Protocol: as §1

[24] = target: T24, HGK/MAP4K4 (Homo sapiens, UniProt O95819)
T24 construct: purchased Reaction Biology Corporation (Kinase HotSpot)
Protocol: as §1

[25] = target: T25, CDK16/cyclin Y (PCTAIRE) (Homo sapiens, UniProt Q00536)
T25 construct: purchased Reaction Biology Corporation (Kinase HotSpot)
T25 sequence (Q00536 whole entry): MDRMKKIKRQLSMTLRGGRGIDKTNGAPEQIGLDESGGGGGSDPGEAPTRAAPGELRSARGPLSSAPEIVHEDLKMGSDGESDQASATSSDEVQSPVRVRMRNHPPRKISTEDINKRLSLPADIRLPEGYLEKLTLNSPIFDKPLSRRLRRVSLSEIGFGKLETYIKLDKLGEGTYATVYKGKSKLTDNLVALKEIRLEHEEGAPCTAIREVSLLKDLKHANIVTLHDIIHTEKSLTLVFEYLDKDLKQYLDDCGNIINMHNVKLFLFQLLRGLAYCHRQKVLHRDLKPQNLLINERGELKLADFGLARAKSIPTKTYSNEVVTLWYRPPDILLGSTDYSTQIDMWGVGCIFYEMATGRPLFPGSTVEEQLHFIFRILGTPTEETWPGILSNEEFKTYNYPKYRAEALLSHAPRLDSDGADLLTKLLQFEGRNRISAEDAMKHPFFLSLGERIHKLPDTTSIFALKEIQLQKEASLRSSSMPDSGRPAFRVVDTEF
T25 sequence (Q8ND76 whole entry partner): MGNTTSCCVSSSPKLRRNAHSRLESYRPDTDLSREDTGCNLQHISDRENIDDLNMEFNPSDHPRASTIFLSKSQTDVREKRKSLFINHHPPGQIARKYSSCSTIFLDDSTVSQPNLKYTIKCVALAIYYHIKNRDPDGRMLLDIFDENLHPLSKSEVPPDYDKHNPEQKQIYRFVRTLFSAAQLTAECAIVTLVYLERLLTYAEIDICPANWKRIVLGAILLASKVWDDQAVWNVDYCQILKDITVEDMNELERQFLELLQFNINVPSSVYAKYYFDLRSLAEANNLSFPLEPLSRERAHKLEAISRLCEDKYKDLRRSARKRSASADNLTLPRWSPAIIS
Protocol: as §1

[26] = target: T26, HIPK3 (Homo sapiens, UniProt Q9H422)
T26 construct: purchased Reaction Biology Corporation (Kinase HotSpot)
Protocol: as §1

[27] = target: T27, IKKb/IKBKB (Homo sapiens, UniProt O14920)
T27 construct: purchased Reaction Biology Corporation (Kinase HotSpot)
T27 sequence (O14920 whole entry): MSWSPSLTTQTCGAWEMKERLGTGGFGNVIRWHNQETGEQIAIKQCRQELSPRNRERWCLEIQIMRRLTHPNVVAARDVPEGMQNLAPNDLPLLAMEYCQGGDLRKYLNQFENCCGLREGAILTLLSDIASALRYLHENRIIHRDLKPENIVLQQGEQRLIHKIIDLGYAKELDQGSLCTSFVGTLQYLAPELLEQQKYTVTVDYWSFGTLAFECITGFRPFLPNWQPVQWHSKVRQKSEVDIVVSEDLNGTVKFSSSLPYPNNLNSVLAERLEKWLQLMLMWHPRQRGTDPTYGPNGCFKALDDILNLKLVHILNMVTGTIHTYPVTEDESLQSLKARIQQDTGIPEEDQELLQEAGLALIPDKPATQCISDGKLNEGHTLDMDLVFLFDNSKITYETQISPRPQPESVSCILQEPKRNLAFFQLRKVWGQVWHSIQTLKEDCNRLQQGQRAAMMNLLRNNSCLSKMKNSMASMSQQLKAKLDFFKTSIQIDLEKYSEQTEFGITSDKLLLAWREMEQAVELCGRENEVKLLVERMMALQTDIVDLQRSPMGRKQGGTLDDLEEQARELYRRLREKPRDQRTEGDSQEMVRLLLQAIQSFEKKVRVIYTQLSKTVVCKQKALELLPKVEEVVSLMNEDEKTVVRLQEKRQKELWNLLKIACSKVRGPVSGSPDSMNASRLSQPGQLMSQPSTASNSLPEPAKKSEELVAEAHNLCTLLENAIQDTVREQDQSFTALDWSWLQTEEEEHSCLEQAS
Protocol: as §1

[28] = target: T28, MEKK3 (Homo sapiens, UniProt Q99759)
T28 construct: purchased Reaction Biology Corporation (Kinase HotSpot)
Protocol: as §1

[29] = target: T29, JAK2 (Homo sapiens, UniProt O60674)
T29 construct: purchased Reaction Biology Corporation (Kinase HotSpot)
Protocol: as §1

[30] = target: T30, CAMK2d (Homo sapiens, UniProt Q13557)
T30 construct: purchased Reaction Biology Corporation (Kinase HotSpot)
T30 sequence (Q13557 whole entry): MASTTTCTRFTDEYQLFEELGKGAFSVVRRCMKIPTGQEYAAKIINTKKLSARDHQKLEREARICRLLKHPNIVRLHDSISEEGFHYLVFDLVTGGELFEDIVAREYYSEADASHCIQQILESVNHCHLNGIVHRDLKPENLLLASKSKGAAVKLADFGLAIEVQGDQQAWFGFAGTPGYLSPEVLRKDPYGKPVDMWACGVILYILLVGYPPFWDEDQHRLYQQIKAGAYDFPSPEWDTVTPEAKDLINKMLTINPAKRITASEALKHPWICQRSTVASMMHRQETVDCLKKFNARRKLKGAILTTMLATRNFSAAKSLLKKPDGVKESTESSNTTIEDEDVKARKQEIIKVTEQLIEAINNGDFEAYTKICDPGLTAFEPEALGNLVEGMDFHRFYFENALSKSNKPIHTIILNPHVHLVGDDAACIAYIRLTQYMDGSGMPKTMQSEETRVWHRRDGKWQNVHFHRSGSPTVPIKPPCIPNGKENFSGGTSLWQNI
Protocol: as §1

Work on `Cc1cnc(N[C@H]2CC[C@H](N)CC2)nc1-c1cnc2ccc(-c3ccccc3)cn12` [CDDD11-8] yielded a remaining activity at 1 µM [1] of 84.2%, a remaining activity at 1 µM [2] of 68.8% and a remaining activity at 1 µM [3] of 78%. For the same molecule, the remaining activity at 1 µM [4] was 40.2%, the remaining activity at 1 µM [5] was 95.3% and the remaining activity at 1 µM [6] was 93.1%. It also gave a remaining activity at 1 µM [7] of 95.4%, a remaining activity at 1 µM [8] of 89.2% and a remaining activity at 1 µM [9] of 94%. It also gave a remaining activity at 1 µM [10] of 73.5%, a remaining activity at 1 µM [11] of 18.5% and a remaining activity at 1 µM [12] of 96.2%. For the same molecule, the remaining activity at 1 µM [13] was 37.1%, the remaining activity at 1 µM [14] was 108% and the remaining activity at 1 µM [15] was 88.8%. For the same molecule, the remaining activity at 1 µM [16] was 77.5%, the remaining activity at 1 µM [17] was 101% and the remaining activity at 1 µM [18] was 76.4%. It also gave a remaining activity at 1 µM [19] of 87%, a remaining activity at 1 µM [20] of 113% and a remaining activity at 1 µM [21] of 88.5%. For the same molecule, the remaining activity at 1 µM [22] was 45.8%, the remaining activity at 1 µM [23] was 41.5% and the remaining activity at 1 µM [24] was 32.8%. The remaining activity at 1 µM [25] was 57.4%, the remaining activity at 1 µM [26] was 125% and the remaining activity at 1 µM [27] was 78.1%. For the same molecule, the remaining activity at 1 µM [28] was 109%, the remaining activity at 1 µM [29] was 70% and the remaining activity at 1 µM [30] was 17.3%.
